# Reference: PMC4555001 (Bioorganic & medicinal chemistry, 2015)
# Entries after “also recorded” stand apart in the source; their conditions may differ.
# Assays:
# ETA receptors [1] = assay: Inhibition of ET-1 induced vasoconstriction in the gerbil spiral modiolar artery; conditions: agonist 1 nM ET-1; antagonist 0.1-1 μM; competitive inhibition assumed
# ETA receptors [2] = conditions: ref [25], cited from earlier work
# ETA receptor [3] = conditions: rat cardiac membranes; ref [6]-[9]; cited from earlier work
# ETA receptor [4] = conditions: read-out: Ki, ET-1 induced contraction of rat aortic strips; ref [6]-[9]; cited from earlier work
# [5] = system: voltage-gated Ca^2+ currents (LVA, principally Cav3.2 T-type; HVA, mainly L-type); assay: Patch clamp recording of voltage-gated Ca2+ currents in mouse DRG neurons; format: cell-based
# [6] = system: voltage-gated Na^+ currents (TTX-sensitive); assay: Patch clamp recording of voltage-gated Na+ currents in mouse DRG neurons; format: cell-based
# [7] = system: voltage-gated K^+ currents; assay: Patch clamp recording of voltage-gated K+ currents in mouse DRG neurons; format: cell-based
compound,measurement,setting,value
"CC1(C)[C@@H]2CC[C@]3(C)[C@H](CC[C@@H]4CC[C@@]5(O)C[C@]43C=N5)[C@@]2(C)CCC12OCCO2 [(-)-4, (-)-Spiro-(10a, 9)-{(4aR,4bR,6aR,10aS,10bR,12aR)-1,1,4a,10b-tetramethyl-3,4,4a,4b,5,6,6a,7,10,10a,10b,11,12,12a-tetradecahydro-1H-spiro[chrysene-2,2′-[1,3]dioxolane]-10a-yl}methyl-hemiaminal]",A2 (putative affinity value),ETA receptors [1],301 nM
Endothelin-1 [ET-1],"Emax, normalized maximal vasoconstriction",ETA receptors [2]; normalized to 10 mM Ca2+ vasoconstriction,140%
same,EC50,"ETA receptors [2]; read-out: EC50 of vasoconstriction, gerbil spiral modiolar artery",0.74 nM
"CC1(C)C(=O)CC[C@]2(C)[C@H]3CC[C@@H]4CCC(=O)C[C@@]4(C#N)[C@]3(C)CC[C@@H]12 [(+)-2, (+)-(4aS,4bR,6aR,10aR,10bR,12aR)-4b,7,7,10a-Tetramethyl-3,8-dioxo-octadecahydrochrysene-4a-carbonitrile]",A2 (putative affinity value),ETA receptors [1],134 nM
"CC1(C)C(=O)CC[C@]2(C)[C@H]3CCc4ccc(OCCO)cc4[C@]3(C)CC[C@@H]12 [(-)-6, (-)-(4aR,10bR)-9-(2-Hydroxyethoxy)-1,1,4a,10b-tetramethyl-4,4a,5,6,10b,11,12,12a-octahydro-(1 H,3H,4bH)-chrysen-2-one]",A2 (putative affinity value),ETA receptors [1],318 nM
"CC1(C)CC[C@]2(C(=O)O)CC[C@]3(COC(=O)/C=C/c4ccc(O)c(O)c4)C(=CC[C@@H]4[C@@]5(C)CCC(=O)C(C)(C)[C@@H]5CC[C@]43C)[C@@H]2C1 [(+)-myriceric acid A, myriceric acid A]",Effect on specific binding of [125I]endothelin-1,ETA receptor [3],antagonizes specific binding
same,Ki,ETA receptor [4],66 ± 15 nM
same,A2 (putative affinity value),ETA receptors [1],85 nM
"CC1(C)[C@@H]2CC[C@]3(C)[C@H](CC[C@@H]4CC=C(O[Si](C)(C)C(C)(C)C)C[C@]43C=N)[C@@]2(C)CCC12OCCO2 [(-)-3, (-)-{(4aR,4bR,6aR,10a S,10bR,12aR)-9-(tert-Butyldimethylsilyloxy)-1,1,4a,10b-tetramethyl-3,4,4a,4b,5,6,6a,7,10,10a,10b,11,12,12a-tetradecahydro-1H-spiro[chrysene-2,2′-[1,3]dioxolane]-10a-yl}methanimin]",Inhibition of Ca2+ currents,[5]; 3 μM,completely block; also recorded: non-specific inhibition
same,Inhibition of Ca2+ currents,"[5]; 0.1 and 0.3 μM, step to -10 mV from Vh -90 mV",substantially inhibited
same,Inhibition of LVA- and HVA-Ca2+ currents,[5]; bath application 0.1 - 3 μM,concentration-dependent inhibition; also recorded: concentration-dependent blockage
same,Inhibition of Na+ currents,[6]; 0.3 μM (as stated in conclusions),little inhibitions
same,Inhibition of Na+ currents,[6]; 3 μM,non-specific inhibition
same,Inhibition of Na+ currents,"[6]; 0.1 - 0.3 μM, depolarizing to 0 mV for 20 ms",little inhibition; also recorded: little inhibitory effect
same,A2 (putative affinity value),ETA receptors [1],93 nM
same,Inhibition of K+ currents,[7]; 3 μM,non-specific inhibition
same,Inhibition of K+ currents,"[7]; 0.1 - 0.3 μM, depolarizing to 70 mV for 300 ms",little inhibition; also recorded: little inhibitory effect
"CC1(C)C(=O)CC[C@]2(C)[C@H]3CCc4ccc(O)cc4[C@]3(C)CC[C@@H]12 [(-)-5, (-)-(4aR,4bR,10bR)-9-Hydroxy-1,1,4a,10b-tetramethyl-3,4,4a,4b,5,6,10b,11,12,12a-decahydrochrysen-2(1H)-one]",A2 (putative affinity value),ETA receptors [1],205 nM
"CC1(C)C(=O)CC[C@]2(C)[C@H]3CC[C@@H]4CCC(=O)C=C4[C@]3(C)CC[C@@H]12 [(+)-1, (+)-(4aR,10bR)-1,1,4a,10b-Tetramethyl-4,4a,4b,5,6,6a,7,8,10b,11,12,12a-dodecahydro-chrysene-2,9(1H,3H)-dione]",A2 (putative affinity value),ETA receptors [1],193 nM
